# Data taken from US20170152239A1, “BENZAMIDE AND HETEROBENZAMIDE COMPOUNDS” (PFIZER INC., priority 2012, published 2017).
# Molecular target: WT EZH2 (EZH2 4 protein complex: EZH2, EED, SUZ12, RbAp48) (Homo sapiens, UniProt O75530+Q09028+Q15022+Q15910)
# Test: WT EZH2 nucleosome assay
# Type: biochemical
# Conditions: nucleosome assay, 5 nM EZH2 4-protein complex, 1.5 μM SAM; read-out: WT EZH2 IC50
# Method: Nucleosome Assay Protocol:
# A. Compound preparation • 1. Prepare 10 mM stock solutions in 100% DMSO from solid material • 2. Serial dilute 10 mM compound stocks either 2 or 3-fold in 100% DMSO to generate compounds for 11 point dose response
# B. Reagent preparation • 1. Prepare 1× assay buffer containing 100 mM Tris pH 8.5, 4 mM DTT and 0.01% Tween-20 • 2. Dilute purified HeLA oligonucleosomes and recombinant histone H1 (New England Biolabs) in assay buffer to 1.67×. • 3. Dilute EZH2 4 protein complex (EZH2, EED, SUZ12, RbAp48) to 3.5× in assay buffer • 4. Prepare 10×^3H SAM solution in assay buffer using 0.94 μCi/well of radioactive SAM (Perkin Elmer) and sufficient non-labeled SAM (Sigma) for 1.5 μM final concentration. • 5. Dilute TCA to 20% in DI water
# C. Enzyme reaction • 1. Final reaction conditions are 5 nM EZH2 4-protein complex, 1.5 μM SAM, 25 μg/mL oligonucleosomes, 50 nM rH1 in a 50 μl reaction volume. • 2. Add 1 μl of diluted compound to the assay plate (96-well V-bottom polypropylene plates) or 1 μl of DMSO for control wells. • 3. Add 30 μl of nucleosomes to the assay plate • 4. Add 14 μl of EZH2 4 protein complex to the assay plate • 5. Add 5 μl of ^3H SAM to start the reaction. • 6. Stop the reaction after 60 minutes with the addition of 100 μl of 20% TCA • 7. Transfer 150 μl of quenched reaction into a prepared filterplate (Millipore #MSIPN4B10) • 8. Apply vacuum to the filterplate to filter the reaction mix through the membrane. • 9. Wash the filterplate with 8×200 μl of PBS, blot dry and dry in an oven for 30 minutes • 10. Add 50 μl of microscint-20 scintillation fluid (Perkin Elmer) to each well, wait 30 minutes and count on a liquid scintillation counter.
# D. Data analysis • 1. IC50 values were determined by fitting the data to a 4-parameter IC50 equation using proprietary curve fitting software.
# Wild type (WT) EZH2% Effect at 20 μM and IC50 values (μM) generated in WT EZH2 or EZH2PRC2 mutant Y641N nucleosome assays are provided in Table 3 below. A blank entry in the table indicates the data was not generated in that assay.
# Sequence of WT EZH2 (EZH2 4 protein complex: EZH2, EED, SUZ12, RbAp48) (Q15910 whole entry): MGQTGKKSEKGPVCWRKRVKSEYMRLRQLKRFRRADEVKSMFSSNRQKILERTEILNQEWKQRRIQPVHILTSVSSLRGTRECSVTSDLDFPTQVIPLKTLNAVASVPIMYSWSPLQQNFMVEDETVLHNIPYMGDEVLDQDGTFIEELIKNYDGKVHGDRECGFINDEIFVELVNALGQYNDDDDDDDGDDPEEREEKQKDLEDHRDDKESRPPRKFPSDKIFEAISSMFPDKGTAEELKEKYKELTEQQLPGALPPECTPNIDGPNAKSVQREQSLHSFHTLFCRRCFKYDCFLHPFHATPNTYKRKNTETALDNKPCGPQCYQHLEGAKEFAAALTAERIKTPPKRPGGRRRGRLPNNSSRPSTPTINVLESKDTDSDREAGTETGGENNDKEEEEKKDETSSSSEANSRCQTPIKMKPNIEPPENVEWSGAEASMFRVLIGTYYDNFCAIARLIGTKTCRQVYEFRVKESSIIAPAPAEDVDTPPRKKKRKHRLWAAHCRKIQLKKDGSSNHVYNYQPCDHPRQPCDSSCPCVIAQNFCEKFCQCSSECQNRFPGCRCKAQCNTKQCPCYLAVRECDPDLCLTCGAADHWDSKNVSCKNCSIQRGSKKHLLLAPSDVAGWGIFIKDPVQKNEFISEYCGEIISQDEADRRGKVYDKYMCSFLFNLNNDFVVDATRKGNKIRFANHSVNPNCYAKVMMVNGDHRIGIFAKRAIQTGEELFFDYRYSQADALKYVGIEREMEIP
# Sequence of WT EZH2 (EZH2 4 protein complex: EZH2, EED, SUZ12, RbAp48) (O75530 whole entry partner): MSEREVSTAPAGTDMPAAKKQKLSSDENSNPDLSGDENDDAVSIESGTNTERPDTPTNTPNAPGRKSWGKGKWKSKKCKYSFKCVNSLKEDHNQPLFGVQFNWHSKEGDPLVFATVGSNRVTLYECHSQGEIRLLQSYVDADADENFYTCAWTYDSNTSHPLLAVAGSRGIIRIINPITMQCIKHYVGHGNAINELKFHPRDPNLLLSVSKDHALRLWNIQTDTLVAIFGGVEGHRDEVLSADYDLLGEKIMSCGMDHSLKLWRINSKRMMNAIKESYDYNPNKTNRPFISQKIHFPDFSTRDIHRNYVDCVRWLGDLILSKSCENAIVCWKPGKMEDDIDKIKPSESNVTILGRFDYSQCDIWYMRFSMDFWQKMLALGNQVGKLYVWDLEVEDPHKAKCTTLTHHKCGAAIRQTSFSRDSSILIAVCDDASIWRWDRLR
# Sequence of WT EZH2 (EZH2 4 protein complex: EZH2, EED, SUZ12, RbAp48) (Q15022 whole entry partner): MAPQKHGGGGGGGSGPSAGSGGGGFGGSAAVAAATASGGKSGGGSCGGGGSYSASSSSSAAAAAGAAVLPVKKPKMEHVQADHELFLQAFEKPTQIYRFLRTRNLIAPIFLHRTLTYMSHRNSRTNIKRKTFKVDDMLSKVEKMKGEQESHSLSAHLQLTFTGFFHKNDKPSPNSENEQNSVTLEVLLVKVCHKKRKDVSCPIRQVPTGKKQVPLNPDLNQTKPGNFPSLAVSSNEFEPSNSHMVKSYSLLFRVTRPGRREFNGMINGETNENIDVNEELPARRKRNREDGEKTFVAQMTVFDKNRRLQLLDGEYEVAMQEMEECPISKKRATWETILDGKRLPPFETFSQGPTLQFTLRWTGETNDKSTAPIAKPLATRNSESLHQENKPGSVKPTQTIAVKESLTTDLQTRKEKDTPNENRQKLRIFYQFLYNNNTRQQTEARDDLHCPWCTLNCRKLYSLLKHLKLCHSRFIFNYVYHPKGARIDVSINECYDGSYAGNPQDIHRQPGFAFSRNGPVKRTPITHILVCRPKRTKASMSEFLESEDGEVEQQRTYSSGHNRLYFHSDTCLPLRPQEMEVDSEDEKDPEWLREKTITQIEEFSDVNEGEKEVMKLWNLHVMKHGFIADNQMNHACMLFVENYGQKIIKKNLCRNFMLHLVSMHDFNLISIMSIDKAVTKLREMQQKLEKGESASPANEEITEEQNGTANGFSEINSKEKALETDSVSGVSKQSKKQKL
# Sequence of WT EZH2 (EZH2 4 protein complex: EZH2, EED, SUZ12, RbAp48) (Q09028 whole entry partner): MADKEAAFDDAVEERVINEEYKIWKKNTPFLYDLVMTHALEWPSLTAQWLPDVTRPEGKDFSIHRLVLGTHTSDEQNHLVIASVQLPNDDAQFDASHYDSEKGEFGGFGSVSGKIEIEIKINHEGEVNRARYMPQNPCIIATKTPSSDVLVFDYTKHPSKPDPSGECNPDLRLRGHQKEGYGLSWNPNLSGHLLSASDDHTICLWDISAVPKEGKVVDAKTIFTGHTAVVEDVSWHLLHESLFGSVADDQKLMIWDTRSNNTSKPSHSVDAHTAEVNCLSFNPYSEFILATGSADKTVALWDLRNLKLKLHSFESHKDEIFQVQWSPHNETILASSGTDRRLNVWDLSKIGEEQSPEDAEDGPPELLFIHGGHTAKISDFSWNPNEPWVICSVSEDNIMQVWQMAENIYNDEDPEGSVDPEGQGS
row,Structure (SMILES),IC50 [nM]
1,"Cc1cc(C)c(CNC(=O)c2cccc(-c3c(C)cnn3C)c2C)c(=O)[nH]1 [Example 1, N-[(4,6-dimethyl-2-oxo-1,2-dihydropyridin-3-yl)methyl]-3-(1,4-dimethyl-1H-pyrazol-5-yl)-2-methylbenzamide]",470
2,"Cc1cc(C)c(CNC(=O)c2cccc(-c3c(C)n[nH]c3C)c2C)c(=O)[nH]1 [Example 3, N-[(4,6-dimethyl-2-oxo-1,2-dihydropyridin-3-yl)methyl]-3-(3,5-dimethyl-1H-pyrazol-4-yl)-2-methylbenzamide]",920
3,"CCCc1cc(C)[nH]c(=O)c1CNC(=O)c1cc(Cl)cc(-c2ccnn2C)c1C [Example 8, 5-chloro-2-methyl-N-[(6-methyl-2-oxo-4-propyl-1,2-dihydropyridin-3-yl)methyl]-3-(1-methyl-1H-pyrazol-5-yl)benzamide]",880
4,"Cc1cc(C)c(CNC(=O)c2cccc(-c3ccnn3C)c2Cl)c(=O)[nH]1 [Example 9, 2-chloro-N-[(4,6-dimethyl-2-oxo-1,2-dihydropyridin-3-yl)methyl]-3-(1-methyl-1H-pyrazol-5-yl)benzamide]",700
5,"Cc1cc(C)c(CNC(=O)c2cccc(-c3c(Cl)cnn3C)c2C)c(=O)[nH]1 [Example 10, 3-(4-chloro-1-methyl-1H-pyrazol-5-yl)-N-[(4,6-dimethyl-2-oxo-1,2-dihydropyridin-3-yl)methyl]-2-methylbenzamide]",380
6,"Cc1cc(C)c(CNC(=O)c2cccc(-c3c(F)cnn3C)c2C)c(=O)[nH]1 [Example 11, N-[(4,6-dimethyl-2-oxo-1,2-dihydropyridin-3-yl)methyl]-3-(4-fluoro-1-methyl-1H-pyrazol-5-yl)-2-methylbenzamide]",360
7,"Cc1cc(C)c(CNC(=O)c2cc(Cl)cc(-n3ccnc3C)c2C)c(=O)[nH]1 [Example 29, 5-chloro-N-[(4,6-dimethyl-2-oxo-1,2-dihydropyridin-3-yl)methyl]-2-methyl-3-(2-methyl-1H-imidazol-1-yl)benzamide]",710
8,"Cc1cc(C)c(CNC(=O)c2cc(C#N)cc(-c3c(C)cnn3C)c2C)c(=O)[nH]1 [Example 30, 5-cyano-N-[(4,6-dimethyl-2-oxo-1,2-dihydropyridin-3-yl)methyl]-3-(1,4-dimethyl-1H-pyrazol-5-yl)-2-methylbenzamide]",540
9,"Cc1cc(C)c(CNC(=O)c2nc(-c3ccc(N)nc3)nc(-c3ccnn3C)c2C)c(=O)[nH]1 [Example 34, 2-(6-aminopyridin-3-yl)-N-[(4,6-dimethyl-2-oxo-1,2-dihydropyridin-3-yl)methyl]-5-methyl-6-(1-methyl-1H-pyrazol-5-yl)pyrimidine-4-carboxamide]",940
10,"Cc1cc(C)c(CNC(=O)c2cc(F)cc(-c3c(C)cnn3C)c2C)c(=O)[nH]1 [Example 38, N-[(4,6-dimethyl-2-oxo-1,2-dihydropyridin-3-yl)methyl]-3-(1,4-dimethyl-1H-pyrazol-5-yl)-5-fluoro-2-methylbenz-amide]",710
11,"CCc1cnn(C)c1-c1cccc(C(=O)NCc2c(C)cc(C)[nH]c2=O)c1C [Example 39, N-[(4,6-dimethyl-2-oxo-1,2-dihydropyridin-3-yl)methyl]-3-(4-ethyl-1-methyl-1H-pyrazol-5-yl)-2-methylbenz-amide]",870
12,"Cc1cc(C)c(CNC(=O)c2nc(Cl)nc(N3C4CCC3CC4)c2C)c(=O)[nH]1 [Example 40, 6-(7-azabicyclo[2.2.1]hept-7-yl)-2-chloro-N-[(4,6-dimethyl-2-oxo-1,2-dihydropyridin-3-yl)methyl]-5-methylpyrimi-dine-4-carboxamide]",1030
13,"Cc1cc(C)c(CNC(=O)c2cc(C3=CCOCC3)cc(C3=CCOCC3)c2C)c(=O)[nH]1 [Example 42, 3,5-di-3,6-dihydro-2H-pyran-4-yl-N-[(4,6-dimethyl-2-oxo-1,2-dihydropyridin-3-yl)methyl]-2-methylbenz-amide]",1120
14,"Cc1cc(C)c(CNC(=O)c2nc(N3CCC(N)CC3)nc(-c3ccnn3C)c2C)c(=O)[nH]1 [Example 43, 2-(4-aminopiperidin-1-yl)-N-[(4,6-dimethyl-2-oxo-1,2-dihydropyridin-3-yl)methyl]-5-methyl-6-(1-methyl-1H-pyrazol-5-yl)pyrimidine-4-carboxamide]",1340
15,"Cc1cc(C)c(CNC(=O)c2nc(-c3cncnc3)nc(N3CCC[C@@H]3C)c2C)c(=O)[nH]1 [Example 44, N-[(4,6-dimethyl-2-oxo-1,2-dihydropyridin-3-yl)methyl]-5-methyl-6-[(2S)-2-methylpyrrolidin-1-yl]-2,5′-bipyrimidine-4-carboxamide]",1410
16,"Cc1cc(C)c(CNC(=O)c2nc(-c3ccc(N)nc3)nc(N3CCC[C@@H]3C)c2C)c(=O)[nH]1 [Example 45, 2-(6-aminopyridin-3-yl)-N-[(4,6-dimethyl-2-oxo-1,2-dihydropyridin-3-yl)methyl]-5-methyl-6-[(2S)-2-methylpyrrolidin-1-yl]pyrimidine-4-carboxamide]",1530

# These reach a lower IC50. Values come first.
row,IC50 [nM],Structure (SMILES)
1,230,"Cc1cc(C)c(CNC(=O)c2cccc(-c3c(C)ncn3C)c2C)c(=O)[nH]1 [Example 4, 3-(1,4-dimethyl-1H-imidazol-5-yl)-N-[(4,6-dimethyl-2-oxo-1,2-dihydropyridin-3-yl)methyl]-2-methylbenzamide]"
2,220,"Cc1cc(C)c(CNC(=O)c2cc(Cl)cc(-c3c(C)cnn3C)c2C)c(=O)[nH]1 [Example 7, 5-chloro-N-[(4,6-dimethyl-2-oxo-1,2-dihydropyridin-3-yl)methyl]-3-(1,4-dimethyl-1H-pyrazol-5-yl)-2-methylbenzamide]"
3,110,"CCn1ncc(C)c1-c1cccc(C(=O)NCc2c(C)cc(C)[nH]c2=O)c1C [Example 12, N-[(4,6-dimethyl-2-oxo-1,2-dihydropyridin-3-yl)methyl]-3-(1-ethyl-4-methyl-1H-pyrazol-5-yl)-2-methylbenzamide]"
4,160,"Cc1cc(C)c(CNC(=O)c2cc(-c3cncnc3)cc(-c3ccnn3C)c2C)c(=O)[nH]1 [Example 17, N-[(4,6-dimethyl-2-oxo-1,2-dihydropyridin-3-yl)methyl]-2-methyl-3-(1-methyl-1H-pyrazol-5-yl)-5-pyrimidin-5-ylbenzamide]"
5,140,"Cc1cc(C)c(CNC(=O)c2cc(-c3cnn(C)c3)cc(-c3ccnn3C)c2C)c(=O)[nH]1 [Example 18, N-[(4,6-dimethyl-2-oxo-1,2-dihydropyridin-3-yl)methyl]-2-methyl-5-(1-methyl-1H-pyrazol-4-yl)-3-(1-methyl-1H-pyrazol-5-yl)benzamide]"
6,41,"Cc1cc(C)c(CNC(=O)c2cc(-c3ccc(N)nc3)cc(-c3ccnn3C)c2C)c(=O)[nH]1 [Example 19, 5-(6-aminopyridin-3-yl)-N-[(4,6-dimethyl-2-oxo-1,2-dihydropyridin-3-yl)methyl]-2-methyl-3-(1-methyl-1H-pyrazol-5-yl)benzamide]"
7,190,"Cc1cc(C)c(CNC(=O)c2cc(C3=CCOCC3)cc(-c3ccnn3C)c2C)c(=O)[nH]1 [Example 20, 5-(3,6-dihydro-2H-pyran-4-yl)-N-[(4,6-dimethyl-2-oxo-1,2-dihydropyridin-3-yl)methyl]-2-methyl-3-(1-methyl-1H-pyrazol-5-yl)benzamide]"
8,19,"Cc1cc(C)c(CNC(=O)c2cc(-c3cnc(N4CCOCC4)nc3)cc(-c3c(C)cnn3C)c2C)c(=O)[nH]1 [Example 21, N-[(4,6-dimethyl-2-oxo-1,2-dihydropyridin-3-yl)methyl]-3-(1,4-dimethyl-1H-pyrazol-5-yl)-2-methyl-5-(2-morpholin-4-ylpyrimidin-5-yl)benzamide]"
9,15,"Cc1cc(C)c(CNC(=O)c2cc(-c3cnc(N4C5CCC4COC5)nc3)cc(-c3c(C)cnn3C)c2C)c(=O)[nH]1 [Example 23, N-[(4,6-dimethyl-2-oxo-1,2-dihydropyridin-3-yl)methyl]-3-(1,4-dimethyl-1H-pyrazol-5-yl)-2-methyl-5-{2-[3-oxa-8-azabicyclo[3.2.1]oct-8-yl]pyrimidin-5-yl}benzamide]"
10,160,"COc1ncc(-c2cc(C(=O)NCc3c(C)cc(C)[nH]c3=O)c(C)c(-c3c(C)cnn3C)c2)cn1 [Example 25, N-[(4,6-dimethyl-2-oxo-1,2-dihydropyridin-3-yl)methyl]-3-(1,4-dimethyl-1H-pyrazol-5-yl)-5-(2-methoxypyrimidin-5-yl)-2-methylbenzamide]"
11,260,"Cc1cc(C)c(CNC(=O)c2cc(Cl)cc(-n3c(C)cnc3C)c2C)c(=O)[nH]1 [Example 28, 5-chloro-3-(2,5-dimethyl-1H-imidazol-1-yl)-N-[(4,6-dimethyl-2-oxo-1,2-dihydropyridin-3-yl)methyl]-2-methylbenzamide]"
